Measurements as given in PubChem BioAssay (NCI).
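Growth conditions: 96-well plates. Treatment: test compound, 48 hours, 5 concentrations. Analysis: linear interpolation between bracketing concentrations; unreached endpoints set to highest concentration. At the TGI there is no net growth.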

Legend:
Test in all cases: DTP human tumour cell line panel, 48 h
NCI-H460 lung = tested on: NCI-H460 lung
HOP-92 NSCLC = tested on: HOP-92 NSCLC
UO-31 renal = tested on: UO-31 renal
RPMI-8226 leukemia = tested on: RPMI-8226 leukemia
MDA-N = tested on: MDA-N
M14 melanoma = tested on: M14 melanoma
HT29 colon = tested on: HT29 colon
OVCAR-5 ovarian = tested on: OVCAR-5 ovarian
SK-MEL-2 melanoma = tested on: SK-MEL-2 melanoma
MCF7 breast = tested on: MCF7 breast
HS 578T breast = tested on: HS 578T breast
BT-549 breast = tested on: BT-549 breast
A549 NSCLC = tested on: A549 NSCLC
COLO 205 colon = tested on: COLO 205 colon
UACC-257 melanoma = tested on: UACC-257 melanoma
HCC-2998 colon = tested on: HCC-2998 colon
DU-145 prostate = tested on: DU-145 prostate
SNB-75 CNS = tested on: SNB-75 CNS
A498 renal = tested on: A498 renal
IGROV1 ovarian = tested on: IGROV1 ovarian
UACC-62 melanoma = tested on: UACC-62 melanoma
SW-620 colon = tested on: SW-620 colon
SR leukemia = tested on: SR leukemia
SF-295 CNS = tested on: SF-295 CNS
PC-3 prostate = tested on: PC-3 prostate
SNB-19 CNS = tested on: SNB-19 CNS
SK-MEL-28 melanoma = tested on: SK-MEL-28 melanoma
U251 CNS = tested on: U251 CNS
RXF 393 renal = tested on: RXF 393 renal
TK-10 renal = tested on: TK-10 renal
NCI-H522 lung = tested on: NCI-H522 lung
MOLT-4 leukemia = tested on: MOLT-4 leukemia
SN12C renal = tested on: SN12C renal
K-562 leukemia = tested on: K-562 leukemia
T-47D breast = tested on: T-47D breast
HCT-116 colon = tested on: HCT-116 colon
NCI-H23 lung = tested on: NCI-H23 lung
NCI/ADR-RES ovarian = tested on: NCI/ADR-RES ovarian
SK-MEL-5 melanoma = tested on: SK-MEL-5 melanoma
OVCAR-8 ovarian = tested on: OVCAR-8 ovarian
SF-268 CNS = tested on: SF-268 CNS
HOP-62 NSCLC = tested on: HOP-62 NSCLC
HCT-15 colon = tested on: HCT-15 colon
NCI-H226 lung = tested on: NCI-H226 lung
EKVX NSCLC = tested on: EKVX NSCLC
786-0 renal = tested on: 786-0 renal
LOX IMVI melanoma = tested on: LOX IMVI melanoma
ACHN renal = tested on: ACHN renal
SK-OV-3 ovarian = tested on: SK-OV-3 ovarian
MALME-3M melanoma = tested on: MALME-3M melanoma
MDA-MB-231 breast = tested on: MDA-MB-231 breast
OVCAR-3 ovarian = tested on: OVCAR-3 ovarian
CAKI-1 renal = tested on: CAKI-1 renal
CCRF-CEM leukemia = tested on: CCRF-CEM leukemia
KM12 colon = tested on: KM12 colon
OVCAR-4 ovarian = tested on: OVCAR-4 ovarian
HL-60(TB) leukemia = tested on: HL-60(TB) leukemia
SF-539 CNS = tested on: SF-539 CNS

Measured: TGI

Cc1cn(CC2=NCC(C)N2)c(=O)[nH]c1=O (stereo not drawn)
> 100 µM: NCI-H460 lung | HOP-92 NSCLC | UO-31 renal | RPMI-8226 leukemia | MDA-N | M14 melanoma | HT29 colon | OVCAR-5 ovarian | SK-MEL-2 melanoma | MCF7 breast | HS 578T breast | BT-549 breast | A549 NSCLC | COLO 205 colon | UACC-257 melanoma | HCC-2998 colon | DU-145 prostate | SNB-75 CNS | A498 renal | IGROV1 ovarian | UACC-62 melanoma | SW-620 colon | SR leukemia | SF-295 CNS | PC-3 prostate | SNB-19 CNS | SK-MEL-28 melanoma | U251 CNS | RXF 393 renal | TK-10 renal | NCI-H522 lung | MOLT-4 leukemia | SN12C renal | K-562 leukemia | T-47D breast | HCT-116 colon | NCI-H23 lung | NCI/ADR-RES ovarian | SK-MEL-5 melanoma | OVCAR-8 ovarian | SF-268 CNS | HOP-62 NSCLC | HCT-15 colon | NCI-H226 lung | EKVX NSCLC | 786-0 renal | LOX IMVI melanoma | ACHN renal | SK-OV-3 ovarian | MALME-3M melanoma | MDA-MB-231 breast

CCOc1ccc2nc(NC(=O)C(=O)C(c3cnc4ccccc4n3)[N+](=O)[O-])sc2c1 (stereo not drawn)
> 100 µM: NCI-H460 lung | OVCAR-3 ovarian | HOP-92 NSCLC | UO-31 renal | RPMI-8226 leukemia | MDA-N | M14 melanoma | HT29 colon | CAKI-1 renal | OVCAR-5 ovarian | SK-MEL-2 melanoma | CCRF-CEM leukemia | MCF7 breast | HS 578T breast | BT-549 breast | A549 NSCLC | KM12 colon | UACC-257 melanoma | HCC-2998 colon | SNB-75 CNS | OVCAR-4 ovarian | A498 renal | IGROV1 ovarian | UACC-62 melanoma | SF-295 CNS | PC-3 prostate | SNB-19 CNS | HL-60(TB) leukemia | RXF 393 renal | TK-10 renal | NCI-H522 lung | MOLT-4 leukemia | SN12C renal | K-562 leukemia | T-47D breast | HCT-116 colon | NCI-H23 lung | NCI/ADR-RES ovarian | SK-MEL-5 melanoma | OVCAR-8 ovarian | SF-268 CNS | HOP-62 NSCLC | HCT-15 colon | NCI-H226 lung | EKVX NSCLC | SF-539 CNS | 786-0 renal | LOX IMVI melanoma | ACHN renal | SK-OV-3 ovarian | MALME-3M melanoma | MDA-MB-231 breast
